In patent US20110003868A1, “TREATMENT OF A NEUROPATHY WITH RAPID RELEASE AMINOPYRIDINE” (The UAB Research Foundation, priority 2003, published 2011):

Assays:
central nervous system = conditions: has been reported, cited from earlier work
subjects with GBS = experiment: Phase II double-blind, placebo controlled, crossover study; motor strength on 0-5 ordinal scale; format: in vivo, human patients; conditions: on average, fast release 4-AP 10 mg three times daily, oral capsule
Source text: This is a Phase II double-blind, placebo controlled, crossover, dose-escalating study in subjects with […]. An initial trial of ten patients is randomized to one of the two treatment sequences (A or B) as shown below. The study population consists of subjects with GBS injury whose neurological status has been stable for at least eighteen months. Ten subjects are enrolled. Variables to be Collected: The measures of neurological status reported for this study are: • Motor strength was rated on the traditional 0-5 ordinal scale: • 0—absent motor strength • 1—trace motor strength • 2—can move the specified joint but only with gravity eliminated • 3—can move the joint against gravity but not against any opposing force • 4—can move the joint against opposing force but the strength is not normal for the person or symmetrical • 5—normal motor strength This scale is employed to measure the following motor strength for each of these joint motions on both the right and the left sides: hip flexion, hip adduction, hip abduction, knee flexion, knee extension, ankle dorsiflexion, ankle plantar flexion, shoulder abduction, elbow extension, elbow flexion, wrist flexion, and wrist extension. 4-AP is compounded in a #1 quick dissolution capsule containing 5 mg 4-AP and 235 mg lactose. […]

| SMILES | Toxicity (central nervous system; compared with 4-AP or 2,3-DAP) | Central nervous system stimulation (central nervous system; compared with 4-AP) | Upper extremity strength increase relative to placebo (subjects with GBS) [%] | Lower extremity strength increase relative to placebo (subjects with GBS; hip abduction, hip adduction, hip flexion, knee flexion, ankle dorsiflexion and plantar flexion) [%] |
| --- | --- | --- | --- | --- |
| Nc1ccnc(N)c1 [2,4-DAP, 2,4-diaminopyridine] | less toxicity than either 4-AP or 2,3-DAP | less central nervous system stimulation than 4-AP | – | – |
| Nc1ccncc1 [4-AP, 4-aminopyridine] | – | – | 15 | 15 |
